Data from patent US20030176456A1, “Methods for reducing alcohol cravings in chronic alcoholics” (priority 2001, published 2003).
Where two headings read alike, the source gives them in different places.

How the values were obtained:
GABAA α1β3γ2 receptors = biological target: T1, GABAA α1β3γ2 receptors (Rattus norvegicus, UniProt P18508+P62813); experiment: Xenopus oocyte expression assay, modulation of GABA current; format: cell-based; details: saturating 1-10 μM modulator with EC50 GABA (50 μM); mean±S.D.
T1 construct: expressed in transfected cells; host or cells: Xenopus laevis oocytes injected with cRNA
T1 sequence (P62813 28-455): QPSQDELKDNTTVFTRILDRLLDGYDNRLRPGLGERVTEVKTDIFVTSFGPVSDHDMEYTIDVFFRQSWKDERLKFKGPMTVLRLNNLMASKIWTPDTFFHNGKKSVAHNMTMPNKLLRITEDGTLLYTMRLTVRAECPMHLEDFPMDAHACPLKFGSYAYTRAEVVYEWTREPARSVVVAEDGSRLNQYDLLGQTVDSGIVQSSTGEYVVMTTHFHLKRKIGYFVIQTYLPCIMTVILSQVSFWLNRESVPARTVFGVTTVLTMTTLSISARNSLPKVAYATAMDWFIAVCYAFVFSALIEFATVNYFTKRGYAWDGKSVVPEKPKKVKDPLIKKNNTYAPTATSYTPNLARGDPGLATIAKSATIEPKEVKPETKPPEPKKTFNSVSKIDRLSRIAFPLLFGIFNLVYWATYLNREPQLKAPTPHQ
T1 sequence (P63079 26-473 partner): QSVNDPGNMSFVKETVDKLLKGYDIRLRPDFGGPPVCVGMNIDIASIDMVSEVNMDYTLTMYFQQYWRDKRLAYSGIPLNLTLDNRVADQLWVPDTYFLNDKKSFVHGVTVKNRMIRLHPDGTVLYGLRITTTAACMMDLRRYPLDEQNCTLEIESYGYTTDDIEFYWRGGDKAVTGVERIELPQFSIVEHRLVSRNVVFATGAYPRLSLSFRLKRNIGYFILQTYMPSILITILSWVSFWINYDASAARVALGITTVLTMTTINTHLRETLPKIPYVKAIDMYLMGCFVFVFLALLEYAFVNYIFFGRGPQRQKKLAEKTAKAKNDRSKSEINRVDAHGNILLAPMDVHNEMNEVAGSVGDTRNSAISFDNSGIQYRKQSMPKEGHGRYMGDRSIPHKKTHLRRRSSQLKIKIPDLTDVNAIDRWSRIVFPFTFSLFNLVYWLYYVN
T1 sequence (P18508 39-466): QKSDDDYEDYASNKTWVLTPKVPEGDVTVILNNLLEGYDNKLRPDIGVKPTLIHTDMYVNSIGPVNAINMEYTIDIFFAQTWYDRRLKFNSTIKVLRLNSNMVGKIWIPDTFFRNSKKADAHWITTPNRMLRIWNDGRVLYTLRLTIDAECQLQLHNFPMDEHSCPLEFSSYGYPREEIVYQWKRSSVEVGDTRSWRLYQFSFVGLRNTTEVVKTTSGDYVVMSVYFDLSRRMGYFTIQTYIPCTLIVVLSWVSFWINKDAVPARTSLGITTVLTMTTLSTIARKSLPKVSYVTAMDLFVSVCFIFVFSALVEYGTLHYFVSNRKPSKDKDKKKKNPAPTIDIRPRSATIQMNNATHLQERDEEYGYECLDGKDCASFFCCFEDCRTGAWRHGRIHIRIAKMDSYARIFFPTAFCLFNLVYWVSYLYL

GABAA α2β3γ2 receptors = experiment: as above; format: cell-based, rat; details: saturating 1-10 μM modulator with EC50 GABA (50 μM); mean±S.D.
GABAA α3β3γ2 receptors = experiment: as above; format: cell-based, rat; details: saturating 1-10 μM modulator with EC50 GABA (30 μM); mean±S.D.
GABAA α4β3γ2 receptors = experiment: as above; format: cell-based, rat
GABAA α5β3γ2 receptors = biological target: T2, GABAA α5β3γ2 receptors (Rattus norvegicus, UniProt P18508+P19969); experiment: as above; format: cell-based; details: saturating 1-10 μM modulator with EC50 GABA (30 μM); mean±S.D.
T2 construct: expressed in transfected cells; host or cells: Xenopus laevis oocytes injected with cRNA

[1] = system: recombinant GABAA α1 through α5 (β3γ2) receptors; experiment: Xenopus oocyte expression assay, result stated across several subtypes; format: cell-based, rat; details: saturating concentration; compared with 3-PBC
[2] = system: alcohol-preferring (P) rats; details: parenteral and oral administration (June et al., 1998b); cited from earlier work
squirrel monkeys = details: Rowlett et al., unpublished observation; cited from earlier work
P rats [3] = experiment: EtOH and sucrose responding after oral (gavage) administration; format: in vivo, rat
Source text: In this study we compared the suppressant effect of βCCt and 3-PBC with naltrexone, a currently used alcohol antagonist on the market. As it is shown in FIG. 29A-B, orally administered βCCt can reduce alcohol responding, however, the effects are not dose related. In addition, 24 hr after administration of βCCt, it continues to reduce alcohol responding with selected doses. […] The suppressant effects of naltrexone in reducing alcohol responding are also dissipated 24 hr after the administration. […] Unlike naltrexone, the suppressant effects observed by βCCt and 3-PBC are selective for alcohol, and not reinforcers in general.

α1β3γ2 GABAA receptor [4] = biological target: T3, α1β3γ2 GABAA receptor (Homo sapiens, UniProt P14867+P18507); details: footnoted b (Schering Labs, unpublished) or c (McKernan et al., 2000); read-out: Ki α1; cited from earlier work
T3 construct: expressed in transfected cells
T3 sequence (P14867 28-456): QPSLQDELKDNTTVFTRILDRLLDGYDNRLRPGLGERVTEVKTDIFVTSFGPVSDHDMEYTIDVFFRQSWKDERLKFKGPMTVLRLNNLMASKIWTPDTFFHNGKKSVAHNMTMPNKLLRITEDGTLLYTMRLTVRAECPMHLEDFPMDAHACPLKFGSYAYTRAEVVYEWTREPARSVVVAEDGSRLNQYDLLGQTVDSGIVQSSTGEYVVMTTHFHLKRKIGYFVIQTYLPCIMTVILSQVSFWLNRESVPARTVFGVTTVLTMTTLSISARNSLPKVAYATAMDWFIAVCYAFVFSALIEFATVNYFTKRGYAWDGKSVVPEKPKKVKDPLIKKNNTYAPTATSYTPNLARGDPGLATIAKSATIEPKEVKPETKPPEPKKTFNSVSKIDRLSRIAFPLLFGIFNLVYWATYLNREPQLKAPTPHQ
T3 sequence (P28472 26-473 partner): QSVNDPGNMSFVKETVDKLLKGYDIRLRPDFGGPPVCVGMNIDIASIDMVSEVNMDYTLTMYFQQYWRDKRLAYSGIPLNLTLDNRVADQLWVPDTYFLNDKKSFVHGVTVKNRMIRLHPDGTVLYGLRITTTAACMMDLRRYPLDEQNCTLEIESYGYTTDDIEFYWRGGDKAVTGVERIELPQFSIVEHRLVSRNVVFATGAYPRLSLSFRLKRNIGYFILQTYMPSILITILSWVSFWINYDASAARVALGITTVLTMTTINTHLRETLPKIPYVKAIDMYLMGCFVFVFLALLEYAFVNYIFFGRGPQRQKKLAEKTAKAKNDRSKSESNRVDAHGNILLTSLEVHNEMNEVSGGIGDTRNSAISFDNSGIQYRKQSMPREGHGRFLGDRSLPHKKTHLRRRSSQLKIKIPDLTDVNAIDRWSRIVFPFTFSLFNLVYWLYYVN
T3 sequence (P18507 40-475): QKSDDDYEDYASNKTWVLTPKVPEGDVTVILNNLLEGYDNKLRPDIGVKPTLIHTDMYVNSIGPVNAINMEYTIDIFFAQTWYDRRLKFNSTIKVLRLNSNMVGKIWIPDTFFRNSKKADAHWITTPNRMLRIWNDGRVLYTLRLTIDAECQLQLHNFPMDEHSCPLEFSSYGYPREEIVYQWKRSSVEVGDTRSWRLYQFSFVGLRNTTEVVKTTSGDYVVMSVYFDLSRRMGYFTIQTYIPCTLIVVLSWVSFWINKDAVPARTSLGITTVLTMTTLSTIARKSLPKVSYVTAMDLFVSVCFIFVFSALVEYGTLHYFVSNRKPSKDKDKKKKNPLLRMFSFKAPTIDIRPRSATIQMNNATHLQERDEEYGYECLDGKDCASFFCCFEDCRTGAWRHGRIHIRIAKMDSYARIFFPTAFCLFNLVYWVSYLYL

α2β3γ2 GABAA receptor [5] = biological target: T4, α2β3γ2 GABAA receptor (Homo sapiens, UniProt P18507+P47869); details: footnoted b or c; read-out: Ki α2; cited from earlier work
T4 construct: expressed in transfected cells
T4 sequence (P47869 29-451): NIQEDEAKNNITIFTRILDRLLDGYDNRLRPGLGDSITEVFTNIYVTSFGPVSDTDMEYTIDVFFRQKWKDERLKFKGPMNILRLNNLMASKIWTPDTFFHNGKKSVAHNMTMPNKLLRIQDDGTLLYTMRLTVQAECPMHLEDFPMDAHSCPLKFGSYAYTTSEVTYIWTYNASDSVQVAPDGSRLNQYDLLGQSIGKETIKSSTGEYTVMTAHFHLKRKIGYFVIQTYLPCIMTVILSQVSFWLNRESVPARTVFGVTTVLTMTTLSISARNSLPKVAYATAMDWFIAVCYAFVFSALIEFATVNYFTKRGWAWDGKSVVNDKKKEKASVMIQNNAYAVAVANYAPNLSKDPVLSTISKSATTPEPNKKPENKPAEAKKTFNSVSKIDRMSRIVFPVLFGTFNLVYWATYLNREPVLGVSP
T4 sequence (P28472 26-473 partner): as the sequence (P28472 26-473 partner) above
T4 sequence (P18507 40-475): as the sequence (P18507 40-475) above

α3β3γ2 GABAA receptor [6] = biological target: T5, α3β3γ2 GABAA receptor (Homo sapiens, UniProt P18507+P34903); details: footnoted b or c; read-out: Ki α3; cited from earlier work
T5 construct: expressed in transfected cells
T5 sequence (P34903 29-492): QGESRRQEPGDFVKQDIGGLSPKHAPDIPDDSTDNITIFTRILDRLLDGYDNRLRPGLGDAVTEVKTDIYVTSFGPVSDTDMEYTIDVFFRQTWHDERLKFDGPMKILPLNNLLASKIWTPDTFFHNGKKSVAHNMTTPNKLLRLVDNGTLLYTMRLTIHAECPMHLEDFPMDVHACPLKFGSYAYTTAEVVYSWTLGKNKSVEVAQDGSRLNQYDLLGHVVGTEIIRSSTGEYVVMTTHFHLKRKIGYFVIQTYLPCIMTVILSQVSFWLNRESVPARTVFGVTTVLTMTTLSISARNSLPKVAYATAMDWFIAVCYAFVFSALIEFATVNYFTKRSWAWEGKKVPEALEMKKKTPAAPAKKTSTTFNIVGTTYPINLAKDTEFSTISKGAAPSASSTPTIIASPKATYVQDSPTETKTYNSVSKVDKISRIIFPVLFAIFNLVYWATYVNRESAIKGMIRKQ
T5 sequence (P28472 26-473 partner): as the sequence (P28472 26-473 partner) above
T5 sequence (P18507 40-475): as the sequence (P18507 40-475) above

α5β3γ2 GABAA receptor [7] = biological target: T6, α5β3γ2 GABAA receptor (Homo sapiens, UniProt P18507+P31644); details: footnoted b or c; read-out: Ki α5; cited from earlier work
T6 construct: expressed in transfected cells
T6 sequence (P31644 32-462): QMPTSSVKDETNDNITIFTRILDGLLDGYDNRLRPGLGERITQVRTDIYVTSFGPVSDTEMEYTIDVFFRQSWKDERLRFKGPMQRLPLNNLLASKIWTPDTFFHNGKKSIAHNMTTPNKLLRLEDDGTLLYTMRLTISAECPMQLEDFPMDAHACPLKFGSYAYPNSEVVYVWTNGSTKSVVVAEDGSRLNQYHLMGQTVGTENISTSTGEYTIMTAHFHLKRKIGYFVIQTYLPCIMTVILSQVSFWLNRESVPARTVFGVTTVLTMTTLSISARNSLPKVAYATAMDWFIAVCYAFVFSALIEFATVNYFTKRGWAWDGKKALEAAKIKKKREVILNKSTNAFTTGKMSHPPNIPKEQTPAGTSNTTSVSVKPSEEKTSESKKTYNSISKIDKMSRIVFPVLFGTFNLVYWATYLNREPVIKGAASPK
T6 sequence (P28472 26-473 partner): as the sequence (P28472 26-473 partner) above
T6 sequence (P18507 40-475): as the sequence (P18507 40-475) above

α6β3γ2 GABAA receptor [8] = biological target: T7, α6β3γ2 GABAA receptor (Homo sapiens, UniProt P18507+Q16445); details: footnoted b or c; read-out: Ki α6; cited from earlier work
T7 construct: expressed in transfected cells
T7 sequence (Q16445 20-453): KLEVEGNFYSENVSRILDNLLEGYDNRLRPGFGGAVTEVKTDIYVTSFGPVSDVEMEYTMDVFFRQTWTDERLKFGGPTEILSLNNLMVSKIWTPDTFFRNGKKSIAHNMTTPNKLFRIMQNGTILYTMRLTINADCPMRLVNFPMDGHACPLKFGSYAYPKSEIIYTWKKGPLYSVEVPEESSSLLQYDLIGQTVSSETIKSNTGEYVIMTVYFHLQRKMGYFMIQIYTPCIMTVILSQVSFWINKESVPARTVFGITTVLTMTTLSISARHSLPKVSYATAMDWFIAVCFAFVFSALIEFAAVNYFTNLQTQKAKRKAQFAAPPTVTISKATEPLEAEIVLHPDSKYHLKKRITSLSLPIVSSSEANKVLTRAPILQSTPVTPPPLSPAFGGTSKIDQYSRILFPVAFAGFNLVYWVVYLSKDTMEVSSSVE
T7 sequence (P28472 26-473 partner): as the sequence (P28472 26-473 partner) above
T7 sequence (P18507 40-475): as the sequence (P18507 40-475) above

[9] = June et al., 1998e; cited from earlier work
[10] = biological target: wild type BDZ receptors (cerebral cortical membranes); experiment: Radioligand displacement at cerebral cortical membranes; format: binding; details: read-out: Displacement of [3H] flunitrazepam in vitro, IC50; rat cerebral cortical membranes; mean of three or more experiments
Protocol: [^3H] […] In brief, rats were sacrificed by decapitation, and the cerebral cortex removed. […] Tissue was resuspended in an equal volume of buffer and recentrifuged. This procedure was repeated a total of three times and the tissue resuspended in 50 volumes of buffer. Incubations (1 mL) consisted of tissue (0.3 mL), drug solution (0.1 mL), buffer (0.5 mL) and radioligand (0.1 mL). […] The IC50 values were estimated using Hill plots.

α1β3γ2 GABAA receptor [11] = biological target: T3, α1β3γ2 GABAA receptor; experiment: Binding affinity at recombinant GABAA receptors (Ltk cells stably transfected); details: recombinant αxβ3γ2; read-out: Ki α1
α2β3γ2 GABAA receptor [12] = biological target: T4, α2β3γ2 GABAA receptor; experiment: as above; details: recombinant αxβ3γ2; read-out: Ki α2
α5β3γ2 GABAA receptor [13] = biological target: T6, α5β3γ2 GABAA receptor; experiment: as above
α6β3γ2 GABAA receptor [14] = biological target: T7, α6β3γ2 GABAA receptor; experiment: as above
α3β3γ2 GABAA receptor [15] = biological target: T5, α3β3γ2 GABAA receptor; experiment: as above; details: recombinant αxβ3γ2; read-out: Ki α3
HAD-1 rats = format: in vivo, rat; details: i.p.; chlordiazepoxide 10 mg/kg, βCCt 15 mg/kg; 10 min open field
Protocol: (§1) Ambulatory count in the open field was recorded individually for 10 min in a plexiglas chamber (42 cm×42 cm 30 cm) using a Digiscan activity monitoring system (Acuscan Electronics, Columbus, Ohio, USA) (for details of the monitoring system see June et al., 1998d).
(§2) βCCt (15 mg/kg i.p.) and chlordiazepoxide (10 mg/kg i.p.) were administered 15 and 30 min, respectively, prior to the rats being placed in the open field. EtOH (1.25 g/kg) was given 5 min prior to placing the rats in the open field. When βCCt was given in combination with either chlordiazepoxide or EtOH, it was given 10 min prior to chlordiazepoxide and EtOH. As noted above, βCCt was administered in Tween-20 solution, while all other drugs were mixed in sterile saline. Animals were tested between 9 am-3 pm.
(§3) Ambulatory count in the open field was recorded individually for 10 min in a plexiglas chamber (42 cm×42 cm 30 cm) using a Digiscan activity monitoring system (Acuscan Electronics, Columbus, Ohio, USA) (for details of the monitoring system see June et al., 1998b).
(§4) βCCt (5-60 mg/kg i.p.) and chlordiazepoxide (2.5, 5, 10 mg/kg i.p.) were administered 15 and 30 min, respectively, prior to being placed in the plus maze or open field. EtOH (1.25 g/kg) was given 5 min prior to placing the rats in the open field. When βCCt was given in combination with either chlordiazepoxide or EtOH, it was given 10 min prior to chlordiazepoxide and EtOH. As noted above, βCCt was administered in Tween-20 solution, while all other drugs were mixed in sterile saline. Animals were tested between 9am-3 pm.

P rats [16] = format: in vivo, rat; details: i.p.; chlordiazepoxide 10 mg/kg, βCCt 15 mg/kg; 10 min open field
Protocol: as §1, §2, §3, §4

[17] = recombinant αxβ3γ2, read-out: Ki α5
[18] = recombinant αxβ3γ2, read-out: Ki α6

## CCOC(=O)c1ncn2c1CN(C)C(=O)c1cc(F)ccc1-2 [Ro15-1788, flumazenil]
GABAA α1β3γ2 receptors
  % of GABA response, α1: 99±5%
GABAA α2β3γ2 receptors
  % of GABA response, α2: 115±4%
GABAA α3β3γ2 receptors
  % of GABA response, α3: 118±7%
GABAA α4β3γ2 receptors; saturating 1-10 μM modulator with EC50 GABA (10 μM), mean±S.D.
  % of GABA response, α4: 132±6%
GABAA α5β3γ2 receptors
  % of GABA response, α5: 96±6%
[1]
  efficacy profile at the α1 through α5 receptors: statistically similar to 3-PBC
[2]
  alcohol-maintained responding: did not alter EtOH-maintained responding
Squirrel monkeys
  activity in observational studies vs saline controls: decreased overall activity

## O=C1CC[C@@]2(O)[C@H]3Cc4ccc(O)c5c4[C@@]2(CCN3CC2CC2)[C@H]1O5 [Naltrexone, naltrexone, reference compound]
P rats [3]; oral (gavage) 75 mg/kg
  responding for sucrose: significantly reduces responding for sucrose
P rats [3]; oral (gavage), βCCt 15 & 30 mg/kg, 3-PBC 30-75 mg/kg, naltrexone 30-75 mg/kg
  EtOH responding: significantly reduces EtOH responding
P rats [3]; oral (gavage), βCCt 15 & 75 mg/kg
  EtOH responding 24 hours after administration: dissipated

## CCOC(=O)c1ncc2[nH]c3cccc(OC(C)C)c3c2c1C [ZK 93426]
GABAA α1β3γ2 receptors
  % of GABA response, α1: 146+11%
GABAA α2β3γ2 receptors
  % of GABA response, α2: 140±13%
GABAA α3β3γ2 receptors
  % of GABA response, α3: 147±10%
GABAA α4β3γ2 receptors
  % of GABA response, α4: 137±8%
GABAA α5β3γ2 receptors
  % of GABA response, α5: ~96±6%
α1β3γ2 GABAA receptor [4]
  Ki: 11 nM
α2β3γ2 GABAA receptor [5]
  Ki: 31 nM
α3β3γ2 GABAA receptor [6]
  Ki: 24 nM
α5β3γ2 GABAA receptor [7]
  Ki: 3 nM
α6β3γ2 GABAA receptor [8]
  Ki: 1600 nM
[2]
  alcohol-maintained responding: can selectively reduce alcohol-maintained responding
[9]
  blocking the sedative actions of alcohol: capable of blocking

## COc1cc2c(cn1)[nH]c1ccccc12 [3-methoxy]
[10]
  IC50: 124 nM

## Cn1ncnc1COc1nn2c(-c3cc(F)ccc3F)nnc2cc1C(C)(C)C [L-838, 417]
α1β3γ2 GABAA receptor [4]
  Ki: 0.79 nM
α2β3γ2 GABAA receptor [5]
  Ki: 0.67 nM
α3β3γ2 GABAA receptor [6]
  Ki: 0.67 nM
α5β3γ2 GABAA receptor [7]
  Ki: 267 nM
α6β3γ2 GABAA receptor [8]
  Ki: 2.25 nM

## CCOC(=O)c1cc2c(cn1)[nH]c1ccccc12 [βCCE]
[10]
  IC50: 5 nM

## CCOc1cc2c(cn1)[nH]c1ccccc12 [3-EBC]
α1β3γ2 GABAA receptor [11]
  Ki: 6.43 nM
α2β3γ2 GABAA receptor [12]
  Ki: 25.1 nM
α5β3γ2 GABAA receptor [13]; [17]
  Ki: 868 nM
α6β3γ2 GABAA receptor [14]; [18]
  Ki: > 1000 nM
[10]
  IC50: 24 nM

## Cc1ccc(-c2nc3ccc(C)cn3c2CC(=O)N(C)C)cc1 [Zolpidem, reference compound]
α5β3γ2 GABAA receptor [13]
  Ki: > 1000 nM
α6β3γ2 GABAA receptor [14]
  Ki: > 1000 nM

## Cc1nnc2ccc(-c3cccc(C(F)(F)F)c3)nn12 [CL218, 872, reference compound]
α1β3γ2 GABAA receptor [11]
  Ki: 57 nM
α2β3γ2 GABAA receptor [12]
  Ki: 1960 nM
α3β3γ2 GABAA receptor [15]
  Ki: 1160 nM
α5β3γ2 GABAA receptor [13]; [17]
  Ki: 561 nM
α6β3γ2 GABAA receptor [14]; [18]
  Ki: > 1000 nM

## CNC1=Nc2ccc(Cl)cc2C(c2ccccc2)=[N+]([O-])C1 [Chlordiazepoxide, reference compound]
HAD-1 rats
  locomotor activity, drug given alone: profound and comparable reduction in locomotor activity
P rats [16]
  locomotor activity, drug given alone: profound and comparable reduction in locomotor activity
